Source: patent publication US20190105367A1, “ANTIMICROBIAL 4-OXOQUINOLIZINES” (Emergent Product Development Gaithersburg Inc., priority 2011, published 2019)
Converted amounts (≈) assume the structure as drawn. “And” between values parts separate entries of the source, which are not always exact repeats. Equal values may be shown once. Read-outs that look alike come from different tables or passages of the source.

How the values were obtained:
[1] = system: A. baumannii A329; assay: MIC without and with sub-inhibitory polymyxin B (Example 4); assay type: cell-based, Acinetobacter baumannii; settings: for MIC without PB/MIC + PB / MIC: 2nd experiment
[2] = system: A. baumannii A489; assay: Preliminary MBC without and with sub-inhibitory polymyxin B (Example 4); assay type: cell-based, Acinetobacter baumannii
[3] = system: A. baumannii A14; assay: MIC without and with sub-inhibitory polymyxin B (Example 4); assay type: cell-based, Acinetobacter baumannii; settings: 2nd experiment
[4] = system: A. baumannii A14; assay: Preliminary MBC without and with sub-inhibitory polymyxin B (Example 4); assay type: cell-based, Acinetobacter baumannii; settings: for MBC +0.06 μg/ml PB: +0.06 μg/ml polymyxin B; for MBC: Acinetobacter baumannii
[5] = system: B. thailandensis; assay type: cell-based, Burkholderia thailandensis; settings: pH 7 vs pH 5
[6] = Cytotoxicity (Example 7); assay type: cell-based; settings: human, HEPG2 V1 cells
Description: The 4-oxoquinolizine compounds of the invention preferably have a low cytotoxicity against human cells. […].
Cytotoxicity was determined for the instant 4-oxoquinolizine compounds which show low cytotoxicity. (see Table 17 following). […]

[7] = system: E. faecalis 29212; assay: MIC, standard panel of Gram-positive and Gram-negative strains (Example 2); assay type: cell-based, Enterococcus faecalis; settings: Enterococcus faecalis, 29212; read-out: MIC E. faecalis 29212
[8] = system: A. baumanii 19606; assay: as above; assay type: cell-based; settings: Acinetobacter baumannii
[9] = system: S. aureus SMITH; assay: MIC, panel of quinolone-resistant strains (Example 2); assay type: cell-based; settings: Staphylococcus aureus; CIP R; read-out: MIC S. aureus SMITH
[10] = system: S. pneumoniae 49619; assay: as above; assay type: cell-based, Streptococcus pneumoniae; settings: Streptococcus pneumoniae, 49619; LEV S; read-out: MIC S. pneumoniae 49619
[11] = system: GN31 Acinetobacter baumannii antibiotic susceptible isolate; assay: Chequerboard synergy with polymyxin B, FICI (Example 6); assay type: cell-based
Description: (§1) A chequerboard technique was used to identify possible synergistic or antagonistic interactions between the 4-oxoquinolizines compounds, levofloxacin and polymyxin B. Levofloxacin was included as a control. […] Final dilutions were made in Mueller-Hinton broth, the specific test medium used for MIC determinations according to CLSI guidelines (CLSI. Methods for Dilution Antimicrobial Susceptibility Tests for Bacteria That Grow Aerobically; Approved Standard-Eighth Edition (2009). CLSI Document M07-A8. CLSI, Wayne, Pa. 19087-1898, USA.). The test medium used was a cation-adjusted Mueller-Hinton Broth II (Becton Dickinson UK Ltd., Oxford Science Park, Oxford, UK, OX4 4DQ).
(§2) The compounds 2, 33 and 35, as well as levofloxacin were tested in combination with polymyxin B on the following isolates: GN31 Acinetobacter baumannii—antibiotic susceptible clinical isolate, GN52 Acinetobacter baumannii—levofloxacin resistant clinical isolate, GN56 Acinetobacter baumannii—levofloxacin resistant clinical isolate, GN48 Klebsiella pneumoniae—NCTC 13443—NDM-1-metallo-β-lactamase and GN10 Pseudomonas aeruginosa—ATCC 27853—antibiotic susceptible reference isolate. All isolates are from the collection maintained at Quotient Bioresearch Ltd., Cambridge, UK.
(§3) The MIC values for the compounds and polymyxin B and levofloxacin were determined by broth microdilution following CLSI guidelines, and the MICs of agents in combination were determined as described by Pillai et. al (Pillai S K, Moellering R C Jr, Eliopoulis G M; Antimicrobial Combinations in Antibiotics in Laboratory Medicine 5th Edition (V. Lorian Ed) (2005) p 365-440). Initial MIC results were used to determine the microtiter plate patterns for the chequerboards. A suitable doubling dilution concentration range was selected such that the combination antibiotic range was at least two concentrations above and four concentrations below the MIC for each isolate. A fixed range of 0.008 to 8 mg/L was tested for polymyxin B except in the case of A. baumannii GN31 where a range of 0.004 to 4 mg/L was tested when in combination with the compounds 2, 33 and 35 as well as levofloxacin.
(§4) From the raw data, fractional inhibitory concentration indices (FICI) were determined for the compounds of the invention and levofloxacin together with polymyxin B for each isolate as follows:
(§5) FICX=concentration of the combination antibiotic in a particular row MIC of the combination drug alone
(§6) FICY=MIC of polymyxin B in combination[…]MIC of the polymyxin B alone
(§7) Additionally isobolograms were created to represent the same data visually. Here, the MIC of polymyxin B was plotted against every concentration of the combination antibiotic up to the MIC.

[12] = system: GN48 Klebsiella pneumoniae NCTC 13443 NDM-1-β-lactamase producing isolate; assay: as above; assay type: cell-based
Description: as §1, §2, §3, §4, §5, §6, §7

[13] = system: GN52 Acinetobacter baumannii levofloxacin resistant clinical isolate; assay: as above; assay type: cell-based
Description: as §1, §2, §3, §4, §5, §6, §7

[14] = system: GN56 Acinetobacter baumannii levofloxacin resistant clinical isolate; assay: as above; assay type: cell-based
Description: as §1, §2, §3, §4, §5, §6, §7

[15] = A. baumannii A329, +0.06 μg/ml PB
[16] = Acinetobacter baumannii, A489, A. baumannii A489, +[…] PB, preliminary MBC, 2nd experiment, read-out: MBC
[17] = Acinetobacter baumannii, A489, read-out: MBC +[…] PB, A. baumannii A489, +[…] polymyxin B, preliminary MBC, 1st experiment
[18] = A. baumannii A14, +0.06 μg/ml PB
[19] = A. baumannii A14, preliminary MBC, 1st experiment
[20] = Acinetobacter baumannii, A329, A. baumannii A329, +0.06 μg/ml PB, read-out: MIC
[21] = Acinetobacter baumannii, A14, A. baumannii A14, without PB, read-out: MIC
[22] = A. baumannii A14, without polymyxin B, preliminary MBC, 1st experiment, read-out: MBC without PB
[23] = in combination with polymyxin B
[24] = polymyxin B with the named antibiotic

## NCC[C@H](O)C(=O)N[C@@H]1C[C@H](N)[C@@H](O[C@H]2O[C@H](CN)[C@@H](O)[C@H](O)[C@H]2O)[C@H](O)[C@H]1O[C@H]1O[C@H](CO)[C@@H](O)[C@H](N)[C@H]1O [Amikacin, reference compound]
[1]; [15]
  MIC without PB/MIC + PB: 1
[2]; [16]
  MBC: 64 µg/mL (≈ 109 µM)
[2]; [17]
  MBC: 128 µg/mL (≈ 219 µM)
[3]; [18]
  MIC: 8 µg/mL (≈ 13.7 µM)
  MIC without PB/MIC + PB: 2
[4]; [19]
  MBC +0.06 μg/ml PB: 16 µg/mL

## Cc1c(-c2ccc(N)c(F)c2)ccn2c(=O)c(C(=O)O)cc(C3CC3)c12 [Compound 1, 8-(3-fluoro-4-amino-phenyl)-1-cyclopropyl-9-methyl-4-oxo-quinolizine-3-carboxylic acid]
[5]
  Dilutions improvement shift on B. thailandensis MIC90 (between pH 7 and pH 5): Yes, 4x
[6]
  IC50: 500 µM
[1]; [15]
  MIC without PB/MIC + PB: 8
[1]; [20]
  MIC: 2 µg/mL (≈ 5.68 µM)
[2]; [16]
  MBC: ≤ 0.03 µg/mL
[2]; [17]
  MBC: ≤ 0.03 µg/mL
[3]; [18]
  MIC without PB/MIC + PB: 512
[3]; Acinetobacter baumannii, A14, A. baumannii A14, +0.06 μg/ml PB, read-out: MIC
  MIC: 0.06 µg/mL (≈ 0.17 µM)
[3]; [21]
  MIC: 32 µg/mL (≈ 90.8 µM)
[4]; [19]
  MBC +0.06 μg/ml PB: 0.06 µg/mL
[4]; [22]
  MBC: 32 µg/mL (≈ 90.8 µM)

## Cc1c(-c2ccc(N)cc2)c(F)cn2c(=O)c(C(=O)O)cc(C3CC3)c12 [Compound 7, 8-(4-amino-phenyl)-1-cyclopropyl-7-fluoro-9-methyl-4-oxo-quinolizine-3-carboxylic acid]
[5]
  Dilutions improvement shift on B. thailandensis MIC90 (between pH 7 and pH 5): Yes, 4x
[7]
  MIC: 0.06 µg/mL (≈ 0.17 µM)
[8]
  MIC: 0.5 µg/mL (≈ 1.42 µM)
[9]
  MIC: 0.25 µg/mL (≈ 0.709 µM)
[10]
  MIC: 0.25 µg/mL (≈ 0.709 µM)
[6]
  IC50: 150 µM
[1]; [15]
  MIC without PB/MIC + PB: 8
[1]; [20]
  MIC: 2 µg/mL (≈ 5.68 µM)
[2]; [16]
  MBC: ≤ 0.03 µg/mL
[2]; [17]
  MBC: ≤ 0.03 µg/mL
[3]; [18]
  MIC: 2 µg/mL (≈ 5.68 µM)
  MIC without PB/MIC + PB: 8
[3]; [21]
  MIC: 16 µg/mL (≈ 45.4 µM)
[4]; A14, read-out: MBC +0.06 μg/ml PB
  MBC: 1 µg/mL (≈ 2.84 µM)
[4]; [22]
  MBC: 16 µg/mL (≈ 45.4 µM)

## C[C@H]1COc2c(N3CCN(C)CC3)c(F)cc3c(=O)c(C(=O)O)cn1c23 [Levofloxacin, reference compound]
[11]
  Combination drug MIC alone: 0.06 µg/mL
  FICx: 0.13
  FICy: 1.00
[11]; combination with polymyxin B
  FICI: 1.13
  Synergy: Indifferent (indifference (FICI 0.76 to 2.75))
[11]; [23]
  Combination drug concentration in combination: 0.008 mg/L
[11]; [24]
  Polymyxin B MIC in combination: 0.5 µg/mL
[12]
  Combination drug MIC alone: 64 µg/mL
  FICx: 0.13
  FICy: 1.00
[12]; combination with polymyxin B
  FICI: 1.13
  Synergy: Indifferent (indifference (FICI 0.76 to 2.75))
[12]; [23]
  Combination drug concentration in combination: 8 mg/L
[12]; [24]
  Polymyxin B MIC in combination: 0.5 µg/mL
[13]
  Combination drug MIC alone: 8 µg/mL
  FICx: 0.13
  FICy: 1.00
[13]; combination with polymyxin B
  FICI: 1.13
  Synergy: Indifferent (indifference (FICI 0.76 to 2.75))
[13]; [23]
  Combination drug concentration in combination: 1 mg/L
[13]; [24]
  Polymyxin B MIC in combination: 0.5 µg/mL
[14]
  Combination drug MIC alone: 32 µg/mL
  FICx: 0.13
  FICy: 1.00
[14]; combination with polymyxin B
  FICI: 1.13
  Synergy: Indifferent (indifference (FICI 0.76 to 2.75))
[14]; [23]
  Combination drug concentration in combination: 4 mg/L
[14]; [24]
  Polymyxin B MIC in combination: 0.5 µg/mL
[1]; [15]
  MIC without PB/MIC + PB: 0.5
[2]; [16]
  MBC: 4 µg/mL (≈ 11.1 µM)
[2]; Acinetobacter baumannii, A489, read-out: MBC +[…] PB
  MBC: 8 µg/mL (≈ 22.1 µM)
[3]; [18]
  MIC: 16.00 µg/mL (≈ 44.3 µM)
  MIC without PB/MIC + PB: 2
[4]; [19]
  MBC +0.06 μg/ml PB: 32 µg/mL

## C[C@@H](O)[C@H]1C(=O)N2C(C(=O)O)=C(S[C@@H]3CN[C@H](C(=O)N(C)C)C3)[C@H](C)[C@H]12 [Meropenem]
[2]; [16]
  MBC: ≤ 0.125 µg/mL
[2]; [17]
  MBC: 0.5 µg/mL (≈ 1.3 µM)
[3]; Acinetobacter baumannii, A14, A. baumannii A14, without PB, value in parentheses, read-out: MIC read with alamar blue
  MIC: 2 µg/mL (≈ 5.22 µM)
[4]; [19]
  MBC +0.06 μg/ml PB: 0.5 µg/mL

## COc1c(N2C[C@@H]3CCCN[C@@H]3C2)c(F)cc2c(=O)c(C(=O)O)cn(C3CC3)c12 [Moxifloxacin]
[1]; [15]
  MIC without PB/MIC + PB: 1
[2]; Acinetobacter baumannii, A489, A. baumannii A489, +[…] PB, preliminary MBC, 2nd experiment
  MBC: 4 µg/mL (≈ 9.96 µM)
[2]; [17]
  MBC: 4 µg/mL (≈ 9.96 µM)
[3]; [18]
  MIC: 16 µg/mL (≈ 39.9 µM)
  MIC without PB/MIC + PB: 2
[4]; [19]
  MBC +0.06 μg/ml PB: 32 µg/mL

## Polymyxin B [reference compound]
[11]
  Polymyxin B MIC alone: 0.25 µg/mL and 0.5 µg/mL
[12]
  Polymyxin B MIC alone: 0.5 µg/mL
[13]
  Polymyxin B MIC alone: 0.5 µg/mL
[14]
  Polymyxin B MIC alone: 0.5 µg/mL
[1]; [15]
  MIC: 0.25 µg/mL
  MIC without PB/MIC + PB: 1
[1]; A. baumannii A329, without PB
  MIC: 0.25 µg/mL
[1]; A. baumannii A329, without polymyxin B, 1st experiment
  MIC without PB: 0.5 µg/mL
[2]; A. baumannii A489, +[…] PB, preliminary MBC, 2nd experiment
  MBC: 0.25 µg/mL
[2]; A. baumannii A489, +[…] polymyxin B, preliminary MBC, 1st experiment
  MBC +[…] PB: 1 µg/mL
[2]; A. baumannii A489, without PB, preliminary MBC, 2nd experiment
  MBC: 0.5 µg/mL
[2]; A. baumannii A489, without polymyxin B, preliminary MBC, 1st experiment
  MBC without PB: 2 µg/mL
[3]; [18]
  MIC: 0.25 µg/mL
  MIC without PB/MIC + PB: 1
[3]; A. baumannii A14, without PB
  MIC: 0.25 µg/mL
[4]; [19]
  MBC +0.06 μg/ml PB: 0.5 µg/mL
[4]; A. baumannii A14, without polymyxin B, preliminary MBC, 1st experiment
  MBC without PB: 0.5 µg/mL
